{"source": "patent US20080213364A1", "about": "“Formulations of Pyridoxal-5'-Phosphate and Methods of Preparation” (Medicure International, Inc., priority 2004, published 2008)", "key": {"[1]": {"assay": "Single-dose pharmacokinetics study, plasma pyridoxal 5′-phosphate", "details": "both, human, in vivo", "method": "(§1) Pharmacokinetics Study—The protocol was designed to first study a single dose of pyridoxal 5′-phosphate at three different dose levels: […] of body weight. Following evaluation of safety and tolerance, the highest tolerated dose was administered once daily for seven consecutive days. The product was manufactured as enteric-coated tablets each containing 250 mg of pyridoxal 5′-phosphate. The dose was calculated based on the body weight and rounded to the nearest 250 mg.\nDuring the single-dose phase, blood samples were collected prior to dosing and 1, 2, 3, 4, 5, 6, 7, 8, 12, 16 and 24 hours following drug administration. During the multi-dose phase, blood samples were drawn each morning prior to dosing and 2 hours post-dose. Following the last dose on day 7, blood samples were drawn after 1, 2, 3, 4, 5, 6, 7, 8, 12, 16 and 24 hours.\nPlasma samples were separated and divided into two approximately equal aliquots and stored at −70±10° C. pending shipment (over dry ice) to the analytical laboratory.\n(§2) Pharmacokinetic Analysis—The following pharmacokinetic parameters were calculated: area under the curve from time zero to the last measurable concentration (AUC-T), area under the curve from time zero to infinity (AUC-inf), maximal plasma concentration (Cmax), time of maximal plasma concentration (Tmax), elimination constant (Kel), half-life (T½), mean residence time (MRT), clearance (Cl) and volume of distribution (Vd).\nWhenever possible, the area under the plasma concentration-time curve was calculated from time zero to the last measurable concentration (AUC T) using the linear trapezoidal method. AUC-T is expressed as ng·h/ml. AUC-T was also normalized for body weight and expressed as ng·h/ml/kg.\nThe area under the curve from time zero to infinity (AUC-inf) was calculated as the sum of AUC-T+Clast/Kel where Clast represents the last measurable concentration and Kel the elimination rate constant calculated by linear least squares regression using the data points that best represent the terminal linear phase. AUC-inf is expressed as ng·h/ml. AUC-inf was also normalized for body weight and expressed as ng·h/mg/kg.\nCmax is expressed in ng/ml. Cmax was also normalized for body weight and expressed as ng/ml/kg. […]\nThe oral clearance was evaluated by dividing the dose (mg/kg) by AUC-inf (ng·h/mL). Clearance is expressed as L/h/kg. The actual clearance was also calculated without normalization for body weight and expressed as L/h.\nThe volume of distribution is actually the Vdarea calculated by dividing the clearance (L/h/kg) by Kel (h-1). Vd is expressed as L/kg and is not corrected for absolute bioavailability. The actual volume of distribution was also calculated without normalization for body weight and expressed in liters. […]"}, "[2]": {"type": "in vivo", "details": "30 mg/kg daily as enteric coated tablets, Day 1 vs Day 7 parameters", "method": "as §1\nDuring the single-dose phase, blood samples were collected prior to dosing and 1, 2, 3, 4, 5, 6, 7, 8, 12, 16 and 24 hours following drug administration. […]\nas §2\nSubjects randomized to the 15 mg/kg group actually received a dose of 14.58±1.11 mg/kg. […] During the multi-dose phase of the study, the number of tablets was calculated prior to the first drug administration and remained constant throughout the duration of the study, regardless of any change in body weight. […]"}}}
{"compound": "Cc1ncc(COP(=O)(O)O)c(C=O)c1O", "note": "[pyridoxal 5′-phosphate]", "values": [{"measurement": "mean maximal plasma concentration (mean curve, FIG. 3)", "setting": "[1]; 15 mg/kg", "value": "1870 ± 2652", "unit": "ng/mL"}, {"measurement": "time at which mean maximal plasma concentration was reached", "setting": "[1]; 15 mg/kg", "value": 6, "unit": "h"}, {"measurement": "mean maximal plasma concentration (mean curve, FIG. 3)", "setting": "[1]; 60 mg/kg", "value": "3922 ± 5457", "unit": "ng/mL"}, {"measurement": "time at which mean maximal plasma concentration was reached", "setting": "[1]; 60 mg/kg", "value": 4, "unit": "h"}, {"measurement": "accumulation upon multiple dosing", "setting": "[2]", "value": "does not accumulate upon multiple dosing"}]}
